Where “and” joins values, the source holds several entries; their conditions need not be identical. Identical values can stand only once. Counter-ions that a name gives are not always drawn.
Assays:
[1] = target: 5-hydroxytryptamine receptor 2B (Homo sapiens, UniProt P41595)
Description: Displacement of [3H]LSD from 5-HT2B receptor (unknown origin)

[2] = target: T1, Muscarinic acetylcholine receptor M2 (Homo sapiens, UniProt P08172); experiment: Binding affinity to muscarinic M2 receptor (unknown origin) by radioligand displacement assay
T1 sequence (P08172 whole entry): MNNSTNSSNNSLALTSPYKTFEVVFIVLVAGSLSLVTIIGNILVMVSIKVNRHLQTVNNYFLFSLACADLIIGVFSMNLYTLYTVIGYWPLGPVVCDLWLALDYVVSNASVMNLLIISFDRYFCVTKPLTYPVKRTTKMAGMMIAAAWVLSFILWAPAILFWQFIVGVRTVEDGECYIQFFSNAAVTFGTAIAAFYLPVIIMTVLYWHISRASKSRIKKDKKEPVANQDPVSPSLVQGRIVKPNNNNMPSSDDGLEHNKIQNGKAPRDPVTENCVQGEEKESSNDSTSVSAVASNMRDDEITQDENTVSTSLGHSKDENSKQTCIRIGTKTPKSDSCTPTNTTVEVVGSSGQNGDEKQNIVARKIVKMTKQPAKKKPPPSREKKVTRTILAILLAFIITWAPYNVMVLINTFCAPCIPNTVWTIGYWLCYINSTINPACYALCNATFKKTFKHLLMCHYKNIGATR

[3] = target: 5-hydroxytryptamine receptor 2A (Homo sapiens, UniProt P28223)
Description: Displacement of [3H]Ketanserin from 5-HT2A receptor (unknown origin)

[4] = target: Alpha-1D adrenergic receptor (Homo sapiens, UniProt P25100)
[5] = target: Sodium-dependent serotonin transporter (Homo sapiens, UniProt P31645)
[6] = target: Alpha-1A adrenergic receptor (Homo sapiens, UniProt P35348)
[7] = target: Kappa-type opioid receptor (Homo sapiens, UniProt P41145); experiment: Displacement of [3H]U69593 from kappa opioid receptor (unknown origin)
Sequence of Kappa-type opioid receptor (P41145 whole entry): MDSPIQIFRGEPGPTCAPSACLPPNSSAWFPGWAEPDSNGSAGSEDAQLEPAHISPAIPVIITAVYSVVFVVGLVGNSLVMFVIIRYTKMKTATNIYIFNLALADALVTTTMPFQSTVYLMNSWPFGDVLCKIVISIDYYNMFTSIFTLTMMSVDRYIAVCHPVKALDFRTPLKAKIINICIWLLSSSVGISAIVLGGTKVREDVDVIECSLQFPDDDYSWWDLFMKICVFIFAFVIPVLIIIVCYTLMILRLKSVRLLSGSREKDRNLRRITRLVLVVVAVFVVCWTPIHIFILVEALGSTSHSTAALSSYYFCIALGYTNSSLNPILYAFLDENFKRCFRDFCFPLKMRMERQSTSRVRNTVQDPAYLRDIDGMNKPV

[8] = target: 5-hydroxytryptamine receptor 1B (Homo sapiens, UniProt P28222)
Description: Displacement of [3H]5-CT from 5-HT1B receptor (unknown origin)

[9] = target: 5-hydroxytryptamine receptor 7 (Homo sapiens, UniProt P34969)
Description: Displacement of [3H]LSD from 5-HT7 receptor (unknown origin)

[10] = target: Beta-2 adrenergic receptor (Homo sapiens, UniProt P07550); experiment: Binding affinity to adrenergic beta2 receptor (unknown origin) by radioligand displacement assay
Sequence of Beta-2 adrenergic receptor (P07550 whole entry): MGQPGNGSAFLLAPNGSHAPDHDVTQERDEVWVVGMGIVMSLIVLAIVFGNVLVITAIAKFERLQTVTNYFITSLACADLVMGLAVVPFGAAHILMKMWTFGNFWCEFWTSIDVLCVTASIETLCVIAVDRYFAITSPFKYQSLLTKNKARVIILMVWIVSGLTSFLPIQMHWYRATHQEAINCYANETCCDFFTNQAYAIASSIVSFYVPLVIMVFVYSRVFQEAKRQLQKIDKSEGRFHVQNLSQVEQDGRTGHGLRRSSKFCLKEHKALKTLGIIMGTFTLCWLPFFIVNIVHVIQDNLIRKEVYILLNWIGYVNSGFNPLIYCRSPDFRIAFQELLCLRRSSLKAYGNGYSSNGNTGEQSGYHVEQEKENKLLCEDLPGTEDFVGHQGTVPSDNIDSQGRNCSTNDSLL

[11] = target: 5-hydroxytryptamine receptor 6 (Homo sapiens, UniProt P50406)
Description: Displacement of [3H]LSD from 5-HT6 receptor (unknown origin)

[12] = target: Sodium-dependent noradrenaline transporter (Homo sapiens, UniProt P23975); experiment: Displacement of [3H]Nisoxetine from norepinephrine transporter (unknown origin)
Sequence of Sodium-dependent noradrenaline transporter (P23975 whole entry): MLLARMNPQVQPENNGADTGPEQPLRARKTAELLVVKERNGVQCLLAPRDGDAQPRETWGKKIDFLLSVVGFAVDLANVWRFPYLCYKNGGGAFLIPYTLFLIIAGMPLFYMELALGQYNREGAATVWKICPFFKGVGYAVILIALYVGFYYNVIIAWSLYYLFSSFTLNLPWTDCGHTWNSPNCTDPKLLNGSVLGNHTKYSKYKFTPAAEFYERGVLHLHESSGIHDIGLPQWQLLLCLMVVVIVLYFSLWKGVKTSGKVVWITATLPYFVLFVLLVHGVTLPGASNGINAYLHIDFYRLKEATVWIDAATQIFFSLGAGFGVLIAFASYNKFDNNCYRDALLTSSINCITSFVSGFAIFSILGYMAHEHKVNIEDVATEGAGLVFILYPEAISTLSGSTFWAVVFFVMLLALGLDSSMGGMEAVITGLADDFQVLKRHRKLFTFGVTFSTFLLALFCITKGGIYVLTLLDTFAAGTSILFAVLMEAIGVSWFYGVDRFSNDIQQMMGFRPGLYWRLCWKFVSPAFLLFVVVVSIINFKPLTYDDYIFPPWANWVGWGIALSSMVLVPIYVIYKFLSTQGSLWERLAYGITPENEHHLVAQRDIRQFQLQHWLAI

[13] = target: Beta-3 adrenergic receptor (Homo sapiens, UniProt P13945); experiment: Binding affinity to adrenergic beta3 receptor (unknown origin) by radioligand displacement assay
Sequence of Beta-3 adrenergic receptor (P13945 whole entry): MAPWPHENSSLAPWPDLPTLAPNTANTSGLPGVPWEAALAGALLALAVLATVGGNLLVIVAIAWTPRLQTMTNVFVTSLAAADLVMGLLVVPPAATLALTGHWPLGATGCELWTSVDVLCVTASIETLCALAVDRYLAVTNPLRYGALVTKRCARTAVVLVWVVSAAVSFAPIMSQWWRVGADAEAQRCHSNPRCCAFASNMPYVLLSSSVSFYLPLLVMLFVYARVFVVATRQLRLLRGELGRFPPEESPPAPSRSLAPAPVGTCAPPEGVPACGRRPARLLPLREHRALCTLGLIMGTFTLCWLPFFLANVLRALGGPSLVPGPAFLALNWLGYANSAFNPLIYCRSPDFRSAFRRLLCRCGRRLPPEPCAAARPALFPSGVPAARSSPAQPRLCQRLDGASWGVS

D(4) dopamine receptor = target: T2, D(4) dopamine receptor (Homo sapiens, UniProt P21917)
T2 sequence (P21917 whole entry): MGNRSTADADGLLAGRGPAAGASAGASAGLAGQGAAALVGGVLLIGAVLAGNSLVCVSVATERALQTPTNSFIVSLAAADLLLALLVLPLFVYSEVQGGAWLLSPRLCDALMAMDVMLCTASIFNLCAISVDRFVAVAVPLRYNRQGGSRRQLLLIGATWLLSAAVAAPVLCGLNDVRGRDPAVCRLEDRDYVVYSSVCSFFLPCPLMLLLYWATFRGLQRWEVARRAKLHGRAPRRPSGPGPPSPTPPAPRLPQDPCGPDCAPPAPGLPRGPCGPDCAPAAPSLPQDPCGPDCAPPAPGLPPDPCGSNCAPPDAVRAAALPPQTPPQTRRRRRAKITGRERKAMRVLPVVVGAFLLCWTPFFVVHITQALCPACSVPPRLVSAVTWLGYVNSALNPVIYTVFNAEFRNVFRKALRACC
Description: Displacement of [3H]N-Methylspiperone from dopamine D4 receptor (unknown origin)

[14] = target: T3, 5-hydroxytryptamine receptor 3A (Homo sapiens, UniProt P46098)
T3 sequence (P46098 whole entry): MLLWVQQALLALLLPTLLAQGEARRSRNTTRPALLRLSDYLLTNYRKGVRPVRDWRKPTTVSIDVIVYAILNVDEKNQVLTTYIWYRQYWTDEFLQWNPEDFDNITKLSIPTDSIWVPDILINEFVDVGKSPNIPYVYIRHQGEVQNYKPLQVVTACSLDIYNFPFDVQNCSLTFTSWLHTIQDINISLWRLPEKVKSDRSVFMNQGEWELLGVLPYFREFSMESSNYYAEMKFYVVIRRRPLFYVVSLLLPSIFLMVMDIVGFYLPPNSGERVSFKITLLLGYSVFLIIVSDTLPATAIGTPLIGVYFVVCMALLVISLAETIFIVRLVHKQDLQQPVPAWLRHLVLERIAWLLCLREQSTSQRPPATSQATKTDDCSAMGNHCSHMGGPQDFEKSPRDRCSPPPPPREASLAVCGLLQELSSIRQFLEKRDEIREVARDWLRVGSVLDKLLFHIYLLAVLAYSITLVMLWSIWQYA
Description: Displacement of [3H]GR65630 from 5-HT3 receptor (unknown origin)

D(1A) dopamine receptor = D(1A) dopamine receptor (Homo sapiens, UniProt P21728); experiment: Binding affinity to dopamine D1 receptor (unknown origin) by radioligand displacement assay
Sequence of D(1A) dopamine receptor (P21728 whole entry): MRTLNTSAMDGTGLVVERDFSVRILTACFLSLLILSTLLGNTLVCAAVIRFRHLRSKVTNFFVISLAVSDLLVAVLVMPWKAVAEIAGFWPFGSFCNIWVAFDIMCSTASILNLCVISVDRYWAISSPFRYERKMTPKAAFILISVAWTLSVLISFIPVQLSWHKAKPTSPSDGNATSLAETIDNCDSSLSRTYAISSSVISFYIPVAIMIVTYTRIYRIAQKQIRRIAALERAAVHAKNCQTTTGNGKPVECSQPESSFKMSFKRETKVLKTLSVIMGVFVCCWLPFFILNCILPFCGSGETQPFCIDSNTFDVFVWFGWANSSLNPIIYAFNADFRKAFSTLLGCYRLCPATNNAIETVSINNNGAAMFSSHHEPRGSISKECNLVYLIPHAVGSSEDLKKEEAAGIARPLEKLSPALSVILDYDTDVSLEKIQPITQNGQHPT

[15] = target: 5-hydroxytryptamine receptor 1E (Homo sapiens, UniProt P28566)
Description: Displacement of [3H]5HT from 5-HT1E receptor (unknown origin)

Histamine H3 receptor = Histamine H3 receptor (Homo sapiens, UniProt Q9Y5N1); experiment: Binding affinity to histamine H3 receptor (unknown origin) by radioligand displacement assay
Sequence of Histamine H3 receptor (Q9Y5N1 whole entry): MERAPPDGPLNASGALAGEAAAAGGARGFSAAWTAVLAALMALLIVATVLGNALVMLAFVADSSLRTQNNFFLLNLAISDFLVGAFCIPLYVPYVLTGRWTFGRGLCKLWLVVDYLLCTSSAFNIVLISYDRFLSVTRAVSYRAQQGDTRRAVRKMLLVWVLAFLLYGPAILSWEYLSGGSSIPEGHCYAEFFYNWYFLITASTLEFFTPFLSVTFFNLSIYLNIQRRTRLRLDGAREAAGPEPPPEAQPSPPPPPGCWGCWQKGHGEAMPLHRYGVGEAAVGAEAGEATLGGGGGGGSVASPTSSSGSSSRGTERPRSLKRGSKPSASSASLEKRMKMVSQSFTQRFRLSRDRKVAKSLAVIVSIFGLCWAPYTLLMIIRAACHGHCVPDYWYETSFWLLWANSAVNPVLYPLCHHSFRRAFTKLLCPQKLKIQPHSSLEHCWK

[16] = target: Alpha-2B adrenergic receptor (Homo sapiens, UniProt P18089)
Description: Displacement of [125I]Clonidine from adrenergic alpha2B receptor (unknown origin)

Histamine H2 receptor = Histamine H2 receptor (Homo sapiens, UniProt P25021)
Sequence of Histamine H2 receptor (P25021 whole entry): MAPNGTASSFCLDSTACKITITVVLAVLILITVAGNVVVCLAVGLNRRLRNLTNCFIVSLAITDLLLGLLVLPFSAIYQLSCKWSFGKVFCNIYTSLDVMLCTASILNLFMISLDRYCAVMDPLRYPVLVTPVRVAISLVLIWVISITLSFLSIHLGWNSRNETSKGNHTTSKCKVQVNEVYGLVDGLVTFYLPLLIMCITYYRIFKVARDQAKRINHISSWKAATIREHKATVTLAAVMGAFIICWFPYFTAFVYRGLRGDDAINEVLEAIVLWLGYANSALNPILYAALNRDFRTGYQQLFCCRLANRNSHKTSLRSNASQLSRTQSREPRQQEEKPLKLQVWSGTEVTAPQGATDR

[17] = target: Beta-1 adrenergic receptor (Homo sapiens, UniProt P08588); experiment: Binding affinity to adrenergic beta1 receptor (unknown origin) by radioligand displacement assay
Sequence of Beta-1 adrenergic receptor (P08588 whole entry): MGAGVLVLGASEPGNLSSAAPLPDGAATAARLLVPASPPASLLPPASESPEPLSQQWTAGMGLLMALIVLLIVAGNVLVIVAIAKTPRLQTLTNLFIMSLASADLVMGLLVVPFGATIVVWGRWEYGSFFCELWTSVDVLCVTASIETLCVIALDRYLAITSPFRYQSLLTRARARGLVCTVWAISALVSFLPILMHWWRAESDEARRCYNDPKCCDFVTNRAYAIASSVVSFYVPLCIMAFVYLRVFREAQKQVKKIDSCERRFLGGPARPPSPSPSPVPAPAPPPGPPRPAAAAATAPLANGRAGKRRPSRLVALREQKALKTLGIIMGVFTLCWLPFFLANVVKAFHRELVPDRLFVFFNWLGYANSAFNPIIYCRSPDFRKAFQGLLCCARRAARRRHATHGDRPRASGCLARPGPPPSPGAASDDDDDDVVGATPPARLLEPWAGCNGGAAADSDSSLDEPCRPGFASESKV

[18] = target: 5-hydroxytryptamine receptor 5A (Homo sapiens, UniProt P47898)
Description: Displacement of [3H]LSD from 5-HT5A receptor (unknown origin)

[19] = target: Alpha-1B adrenergic receptor (Homo sapiens, UniProt P35368)
Description: Displacement of [125I]HEAT from adrenergic alpha1B receptor (unknown origin)

[20] = target: Sigma non-opioid intracellular receptor 1 (Homo sapiens, UniProt Q99720); experiment: Displacement of [3H](+)Pentazocine from sigma 1 receptor (unknown origin)
[21] = target: Sodium-dependent dopamine transporter (Homo sapiens, UniProt Q01959); experiment: Binding affinity to dopamine transporter (unknown origin) by radioligand displacement assay
Sequence of Sodium-dependent dopamine transporter (Q01959 whole entry): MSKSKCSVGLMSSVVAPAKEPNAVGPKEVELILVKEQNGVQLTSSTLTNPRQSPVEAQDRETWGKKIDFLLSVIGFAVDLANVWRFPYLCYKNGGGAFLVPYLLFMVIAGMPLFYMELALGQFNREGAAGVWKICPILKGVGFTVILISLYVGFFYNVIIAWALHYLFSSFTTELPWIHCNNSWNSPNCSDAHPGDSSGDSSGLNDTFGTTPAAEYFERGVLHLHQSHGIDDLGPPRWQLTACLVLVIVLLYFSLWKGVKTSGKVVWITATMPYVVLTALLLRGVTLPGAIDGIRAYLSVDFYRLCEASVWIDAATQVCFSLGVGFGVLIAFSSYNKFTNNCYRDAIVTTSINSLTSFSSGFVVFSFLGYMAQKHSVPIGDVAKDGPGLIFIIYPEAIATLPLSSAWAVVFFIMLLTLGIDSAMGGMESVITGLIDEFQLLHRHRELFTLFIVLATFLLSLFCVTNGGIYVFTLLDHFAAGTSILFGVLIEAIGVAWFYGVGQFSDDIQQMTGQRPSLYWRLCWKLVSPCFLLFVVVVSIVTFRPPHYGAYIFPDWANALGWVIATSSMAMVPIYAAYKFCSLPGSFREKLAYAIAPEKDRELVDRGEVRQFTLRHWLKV

[22] = target: 5-hydroxytryptamine receptor 1D (Homo sapiens, UniProt P28221); experiment: Displacement of [3H]5-CT from 5-HT1D receptor (unknown origin)
D(1B) dopamine receptor = D(1B) dopamine receptor (Homo sapiens, UniProt P21918)
[23] = target: Muscarinic acetylcholine receptor M3 (Homo sapiens, UniProt P20309)
Description: Displacement of [3H]QNB from muscarinic M3 receptor (unknown origin)

[24] = target: Alpha-2A adrenergic receptor (Homo sapiens, UniProt P08913)
Description: Displacement of [125I]Clonidine from adrenergic alpha2A receptor (unknown origin)

D(2) dopamine receptor = D(2) dopamine receptor (Homo sapiens, UniProt P14416); experiment: Displacement of [3H]N-Methylspiperone from dopamine D2 receptor (unknown origin)
Mu-type opioid receptor = Mu-type opioid receptor (Homo sapiens, UniProt P35372); experiment: Binding affinity to mu opioid receptor (unknown origin) by radioligand displacement assay
Sequence of Mu-type opioid receptor (P35372 whole entry): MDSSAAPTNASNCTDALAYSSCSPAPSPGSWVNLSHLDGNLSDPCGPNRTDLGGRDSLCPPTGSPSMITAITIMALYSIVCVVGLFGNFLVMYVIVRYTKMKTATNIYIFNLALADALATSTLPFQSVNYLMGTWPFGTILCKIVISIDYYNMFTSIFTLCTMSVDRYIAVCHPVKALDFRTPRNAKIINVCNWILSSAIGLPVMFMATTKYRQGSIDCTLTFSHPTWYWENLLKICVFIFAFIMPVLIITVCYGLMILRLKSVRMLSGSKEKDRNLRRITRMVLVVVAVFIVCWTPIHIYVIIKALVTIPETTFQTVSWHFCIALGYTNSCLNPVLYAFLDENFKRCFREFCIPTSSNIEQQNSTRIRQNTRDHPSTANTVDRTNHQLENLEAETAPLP

Histamine H1 receptor = Histamine H1 receptor (Homo sapiens, UniProt P35367)
Description: Displacement of [3H]Pyrilamine from histamine H1 receptor (unknown origin)

[25] = target: Muscarinic acetylcholine receptor M5 (Homo sapiens, UniProt P08912)
Description: Displacement of [3H]QNB from muscarinic M5 receptor (unknown origin)

D(3) dopamine receptor = D(3) dopamine receptor (Homo sapiens, UniProt P35462)
Description: Displacement of [3H]N-Methylspiperone from dopamine D3 receptor (unknown origin)

[26] = target: Muscarinic acetylcholine receptor M1 (Homo sapiens, UniProt P11229)
Description: Displacement of [3H]QNB from muscarinic M1 receptor (unknown origin)

[27] = target: Alpha-2C adrenergic receptor (Homo sapiens, UniProt P18825)
Description: Displacement of [125I]Clonidine from adrenergic alpha2C receptor (unknown origin)

[28] = target: 5-hydroxytryptamine receptor 2C (Homo sapiens, UniProt P28335)
Description: Displacement of [3H]Mesulergine from 5-HT2C receptor (unknown origin)

[29] = target: Delta-type opioid receptor (Homo sapiens, UniProt P41143); experiment: Binding affinity to delta opioid receptor (unknown origin) by radioligand displacement assay
Sequence of Delta-type opioid receptor (P41143 whole entry): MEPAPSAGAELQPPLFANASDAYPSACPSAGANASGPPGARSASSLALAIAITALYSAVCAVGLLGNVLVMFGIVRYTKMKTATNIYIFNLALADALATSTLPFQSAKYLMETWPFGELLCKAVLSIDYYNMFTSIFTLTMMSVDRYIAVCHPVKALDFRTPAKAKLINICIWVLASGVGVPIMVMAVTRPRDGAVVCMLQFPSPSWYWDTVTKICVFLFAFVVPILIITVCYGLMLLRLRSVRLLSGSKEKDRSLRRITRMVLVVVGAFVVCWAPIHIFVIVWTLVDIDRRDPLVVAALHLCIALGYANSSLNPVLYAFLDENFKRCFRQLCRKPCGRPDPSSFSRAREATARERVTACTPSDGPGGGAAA

[30] = target: T4, Muscarinic acetylcholine receptor M4 (Homo sapiens, UniProt P08173); experiment: Binding affinity to muscarinic M4 receptor (unknown origin) by radioligand displacement assay
T4 sequence (P08173 whole entry): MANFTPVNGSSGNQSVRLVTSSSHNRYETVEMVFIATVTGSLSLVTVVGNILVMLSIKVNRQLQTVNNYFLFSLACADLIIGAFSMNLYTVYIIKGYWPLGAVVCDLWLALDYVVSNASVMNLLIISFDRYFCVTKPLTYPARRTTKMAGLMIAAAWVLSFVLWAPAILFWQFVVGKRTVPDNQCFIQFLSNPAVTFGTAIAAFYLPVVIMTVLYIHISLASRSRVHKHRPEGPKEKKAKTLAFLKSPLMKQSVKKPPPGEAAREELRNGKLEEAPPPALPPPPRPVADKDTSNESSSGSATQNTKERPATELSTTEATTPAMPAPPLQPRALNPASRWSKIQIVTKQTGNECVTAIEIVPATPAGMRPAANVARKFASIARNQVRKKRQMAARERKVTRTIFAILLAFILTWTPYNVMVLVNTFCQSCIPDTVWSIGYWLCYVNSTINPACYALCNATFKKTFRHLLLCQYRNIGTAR

[31] = target: 5-hydroxytryptamine receptor 1A (Homo sapiens, UniProt P08908); experiment: Displacement of [3H]WAY100635 from 5-HT1A receptor (unknown origin)

| SMILES | Ki [1] | Ki [2] | Ki [7] | Ki [10] | Ki ([12]; read-out: Ki) | Ki [13] | Ki (D(4) dopamine receptor) | Ki [14] | Ki (D(1A) dopamine receptor) | Ki [15] | Ki (Histamine H3 receptor) | Ki (Histamine H2 receptor) | Ki [17] | Ki [18] | Ki [19] | Ki [21] | Ki (D(1B) dopamine receptor) | Ki (Mu-type opioid receptor) | Ki [29] | Ki [30] | further results |
| --- | --- | --- | --- | --- | --- | --- | --- | --- | --- | --- | --- | --- | --- | --- | --- | --- | --- | --- | --- | --- | --- |
| Cn1ccc2cc3c(cc21)CCN3C(=O)Nc1cccnc1 | 0.012 µM |  |  |  |  |  |  |  |  |  |  |  |  |  |  |  |  |  |  |  |  |
| CN1CCc2c(c3cccc4c3n2Cc2ccccc2C4)C1 |  | > 10 µM | > 10 µM | > 10 µM | 1.35 µM | > 10 µM | > 10 µM | > 10 µM | > 10 µM | > 10 µM | > 10 µM | > 10 µM | > 10 µM | > 10 µM | > 10 µM | > 10 µM | > 10 µM | > 10 µM | > 10 µM | > 10 µM | Ki ([4]; read-out: pKi (converted)): > 10 µM; Ki ([5]; read-out: pKi (converted)): > 10 µM; Ki ([6]; read-out: pKi (converted)): > 10 µM; Ki ([20]; read-out: pKi (converted)): > 10 µM; Ki [23]: > 10 µM; Ki (D(2) dopamine receptor): > 10 µM; Ki [25]: > 10 µM; Ki [26]: > 10 µM; Ki [28]: > 10 µM |
| CN1CCc2c(c3cccc4c3n2-c2ccccc2CC4)C1 |  | > 10 µM |  | > 10 µM |  | > 10 µM | > 10 µM | > 10 µM | > 10 µM |  | > 10 µM |  | > 10 µM |  |  | > 10 µM |  | > 10 µM | > 10 µM | > 10 µM | Ki ([12]; read-out: pKi (converted)): > 10 µM; Ki (D(3) dopamine receptor): > 10 µM |

The next lines start with results.

| Ki [1] | Ki [2] | Ki [7] | Ki [10] | Ki ([12]; read-out: Ki) | Ki [13] | Ki (D(4) dopamine receptor) | Ki [14] | Ki (D(1A) dopamine receptor) | Ki [15] | Ki (Histamine H3 receptor) | Ki (Histamine H2 receptor) | Ki [17] | Ki [18] | Ki [19] | Ki [21] | Ki (D(1B) dopamine receptor) | Ki (Mu-type opioid receptor) | Ki [29] | Ki [30] | SMILES | further results |
| --- | --- | --- | --- | --- | --- | --- | --- | --- | --- | --- | --- | --- | --- | --- | --- | --- | --- | --- | --- | --- | --- |
| 0.104 µM | > 10 µM | > 10 µM | > 10 µM | 1.95 µM | > 10 µM | 1.38 µM and 1.23 µM | 0.529 µM | > 10 µM | > 10 µM | > 10 µM | 0.943 µM | > 10 µM | > 10 µM | 2.24 µM | > 10 µM | > 10 µM | > 10 µM | > 10 µM | > 10 µM | CN1CCc2c(c3cccc4c3n2CCc2ccccc2-4)C1 | Ki [3]: 0.257 µM; Ki ([4]; read-out: Ki): 0.293 µM; Ki ([5]; read-out: Ki): 0.413 µM; Ki ([6]; read-out: Ki): 0.286 µM; Ki [8]: 1.22 µM; Ki [9]: 0.195 µM; Ki [11]: > 10 µM; Ki [16]: 4.35 µM; Ki ([20]; read-out: Ki): 0.22 µM; Ki [22]: 0.625 µM; Ki [23]: > 10 µM; Ki [24]: 0.407 µM; Ki (D(2) dopamine receptor): > 10 µM; Ki (Histamine H1 receptor): > 10 µM; Ki [25]: > 10 µM; Ki (D(3) dopamine receptor): > 10 µM; Ki [26]: > 10 µM; Ki [27]: 0.446 µM; Ki [28]: > 10 µM; Ki [31]: > 10 µM |
|  |  |  |  |  |  |  |  |  |  |  | 0.0057 µM |  |  |  |  |  |  |  |  | CN1CC2c3ccccc3Oc3ccc(Cl)cc3C2C1 (centres undefined) [ASENAPINE MALEATE] |  |

From ChEMBL document CHEMBL3102773, “The synthesis and comparative receptor binding affinities of novel, isomeric pyridoindolobenzazepine scaffolds” (Bioorg Med Chem Lett, 2014)
